# Results taken from US20100286147A1 (priority 2008, published 2010).
# What was measured:
# Assay type in all cases: in vivo
# [1] = tested on: Plasmopara viticola; assay: Test A: grape downy mildew, grape seedlings sprayed after inoculation; conditions: sprayed 24 h after inoculation, visual rating, 100 = 100% disease control, 0 = no control relative to controls, test concentration not given
# Excerpt: General protocol for preparing test suspensions for Test A-C: The test compounds were first dissolved in acetone in an amount equal to 3% of the final volume and then suspended at the desired concentration (in ppm) in acetone and purified water (50/50 mix by volume) containing 250 ppm of the surfactant Trem® 014 (polyhydric alcohol esters). The resulting test suspensions were then used in Tests A-C. Spraying a 40 ppm test suspension to the point of run-off on the test plants was equivalent to a rate of 100 g/ha.
# Grape seedlings were inoculated with a spore suspension of Plasmopara viticola (the causal agent of grape downy mildew) and incubated in a saturated atmosphere at 20° C. for 24 h. After a short drying period, the test suspension was sprayed to the point of run-off on the grape seedlings, which were then moved to a growth chamber at 20° C. for 5 days, after which time the grape seedling were placed back into a saturated atmosphere at 20° C. for 24 h. Upon removal, visual disease ratings were made.
# Results for Tests A-C are given in Table A. In the table, a rating of 100 indicates 100% disease control and a rating of 0 indicates no disease control (relative to the controls).
# [2] = tested on: Phytophthora infestans; conditions: tomato seedlings, sprayed the day before inoculation; visual rating, 100 = 100% disease control, 0 = no control relative to controls; test concentration not given
# [3] = tested on: Phytophthora infestans; conditions: tomato seedlings, sprayed 17 h after inoculation; visual rating, 100 = 100% disease control, 0 = no control relative to controls; test concentration not given
Compound,Percent Disease Control Test A [1] [%],Percent Disease Control Test B [2] [%],Percent Disease Control Test C [3] [%]
"Cc1cc(C(F)(F)F)nn1CC(=O)N1CCC(c2nc(C3=NOC(c4cccc(-n5cncn5)c4)C3)cs2)CC1 (stereo not drawn) [Compound 1, 1-[4-[4-[4,5-dihydro-5-[3-(1H-1,2,4-triazol-1-yl)phenyl]-3-isoxazolyl]-2-thiazolyl]-1-piperidinyl]-2-[5-methyl-3-(trifluoromethyl)-1H-pyrazol-1-yl]ethanone]",91,100,99
Cc1cc(C(F)(F)F)nn1CC(=O)N1CCC(c2nc(C3=NOC(c4ccc(-c5ccccc5)cc4)C3)cs2)CC1 (stereo not drawn) [Compound 2],76,90,32
Cc1cc(C(F)(F)F)nn1CC(=O)N1CCC(c2nc(C3=NOC(c4ccccc4Oc4ccccc4)C3)cs2)CC1 (stereo not drawn) [Compound 3],97,100,93
Cc1cc(C(F)(F)F)nn1CC(=O)N1CCC(c2nc(C3=NOC(c4ccccc4N4CCCCC4)C3)cs2)CC1 (stereo not drawn) [Compound 4],58,99,83
Cc1cc(C(F)(F)F)nn1CC(=O)N1CCC(c2nc(C3=NOC(c4ccccc4-n4cncn4)C3)cs2)CC1 (stereo not drawn) [Compound 5],98,100,99
Cc1cc(C(F)(F)F)nn1CC(=O)N1CCC(c2nc(C3=NOC(c4ccccc4N4CCOCC4)C3)cs2)CC1 (stereo not drawn) [Compound 6],87,100,99
Cc1cc(C(F)(F)F)nn1CC(=O)N1CCC(c2nc(C3=NOC(c4ccccc4Cc4ccccc4)C3)cs2)CC1 (stereo not drawn) [Compound 7],73,99,86
Cc1cccc(C2CC(c3csc(C4CCN(C(=O)Cn5nc(C(F)(F)F)cc5C)CC4)n3)=NO2)c1-n1c(O)nn(C)c1=O (stereo not drawn) [Compound 8],0,100,53
Cc1cc(C(F)(F)F)nn1CC(=O)N1CCC(c2nc(C3=NOC(c4ccccc4C(=O)c4ccccc4)C3)cs2)CC1 (stereo not drawn) [Compound 9],0,100,17
Cc1cc(C(F)(F)F)nn1CC(=O)N1CCC(c2nc(C3=NOC(c4ccccc4N4CCN(C)CC4)C3)cs2)CC1 (stereo not drawn) [Compound 10],10,100,93
Cc1cc(C(F)(F)F)nn1CC(=O)N1CCC(c2nc(C3=NOC(c4c(F)cccc4-n4cncn4)C3)cs2)CC1 (stereo not drawn) [Compound 11],99,100,99
COc1nn(C)c(=O)n1-c1c(C)cccc1C1CC(c2csc(C3CCN(C(=O)Cn4nc(C(F)(F)F)cc4C)CC3)n2)=NO1 (stereo not drawn) [Compound 12],31,100,99
Cc1cc(C(F)(F)F)nn1CC(=O)N1CCC(c2nc(C3=NOC(n4ccc(-c5ccccc5)n4)C3)cs2)CC1 (stereo not drawn) [Compound 13],56,100,93
Cc1cc(C(F)(F)F)nn1CC(=O)N1CCC(c2nc(C3=NOC(N4C(=O)NC(C)(c5ccccc5)C4=O)C3)cs2)CC1 (stereo not drawn) [Compound 15],92,100,97
Cc1cc(C(F)(F)F)nn1CC(=O)N1CCC(c2nc(C3=NOC(c4ccccc4-c4ccccc4)C3)cs2)CC1 (stereo not drawn) [Compound 16],99,100,99
"Cc1ccc(C)c(NC(=O)N2CCC(c3nc(C4=NOC(c5ccccc5-c5ccccc5)C4)cs3)CC2)c1 (stereo not drawn) [Compound 17, 4-[4-(5-[1,1′-biphenyl]-2-yl-4,5-dihydro-3-isoxazolyl)-2-thiazolyl]-N-(2,5-dimethylphenyl)-1-piperidinecarboxamide]",98,100,99
Cc1ccc(C)c(NC(=O)N2CCC(c3nc(C4=NOC(c5ccccc5Oc5ccccc5)C4)cs3)CC2)c1 (stereo not drawn) [Compound 18],67,93,58
Cc1ccc(C)c(NC(=O)N2CCC(c3nc(C4=NOC(c5ccccc5-n5cncn5)C4)cs3)CC2)c1 (stereo not drawn) [Compound 19],99,100,99
